Results taken from patent publication US9556159B2, “Renin inhibitor” (MITSUBISHI TANABE PHARMA CORPORATION, priority 2012, dated 2017).

biological target: T1, Recombinant human renin (Homo sapiens, UniProt P00797); assay: Inhibitory activity against human renin (fluorogenic peptide substrate); type: biochemical; conditions: 37° C. for 1 hour, read-out: IC50
T1 sequence (P00797 67-406): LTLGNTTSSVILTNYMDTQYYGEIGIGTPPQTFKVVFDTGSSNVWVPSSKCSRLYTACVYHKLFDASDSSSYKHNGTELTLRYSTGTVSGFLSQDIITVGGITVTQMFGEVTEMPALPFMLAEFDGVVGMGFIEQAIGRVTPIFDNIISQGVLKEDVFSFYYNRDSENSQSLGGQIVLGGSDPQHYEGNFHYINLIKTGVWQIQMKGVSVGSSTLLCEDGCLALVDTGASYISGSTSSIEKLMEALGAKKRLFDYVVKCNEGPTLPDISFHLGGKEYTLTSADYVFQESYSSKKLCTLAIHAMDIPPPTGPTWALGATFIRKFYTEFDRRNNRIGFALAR
Protocol: Inhibitory Activity Against Human Renin
A substrate of synthetic peptide (Nma-KHPFH LVIHK(Dnp)-NH2) and test compound were mixed, and fluorescence intensity was assayed using a fluorophotometer before starting an enzymatic reaction (exciting wavelength: 340 nm, measuring wavelength: 460 nm). Recombinant human renin was added and the mixture was incubated at 37° C. for 1 hour, and the fluorescence intensity was measured after the reaction using a fluorophotometer (exciting wavelength: 340 nm, measuring wavelength: 460 nm).

Row | SMILES | IC50 [nM]
1 | COCc1ccc([C@@H](C)N(C(=O)[C@H]2CNCCO2)C2CC2)cc1CCCNC(=O)OC [Example 96] | 0.8
2 | COC(=O)NCCCc1cc([C@@H](C)N(C(=O)[C@H]2CNCCO2)C2CC2)cc(C)n1 [Example 97] | 8.2
3 | COC(=O)NCCCc1cc([C@@H](C)N(C(=O)[C@H]2CNCCO2)C2CC2)cc(Cl)n1 [Example 98] | 2.8
4 | COC(=O)NCCCc1cc([C@@H](C)N(C(=O)[C@H]2CNCCO2)C2CC2)cc(C(C)C)n1 [Example 99] | 1.8
5 | COC(=O)NCCCn1nc([C@@H](C)N(C(=O)[C@H]2CNCCO2)C2CC2)c2ccc(CN(C)C)nc21 [Example 100] | 9
6 | CCOc1ccnc2c([C@@H](C)N(C(=O)[C@H]3CNCCO3)C3CC3)cn(CCCCOC)c12 [Example 101] | 2.5
7 | COC(=O)NCCCn1cc([C@@H](C)N(C(=O)[C@H]2CNCCO2)C2CC2)c2ncc(C)nc21 [Example 102] | 0.4
8 | COCCCCn1cc([C@@H](C)N(C(=O)[C@H]2CNCCO2)C2CC2)c2cnc(C)nc21 [Example 103] | 2.1
9 | COC(=O)NCCOc1cc([C@@H](C)N(C(=O)[C@H]2CNCCO2)C2CC2)nc2c1CCCC2 [Example 104] | 8.2
10 | COCc1ccc2c([C@@H](C)N(C(=O)[C@H]3CNCCO3)C3CC3)nn(CCCNC(=O)OC)c2n1 [Example 105] | 1.2
11 | CCOc1ccc([C@@H](C)N(C(=O)[C@H]2CNCCO2)C2CC2)cc1CCCNC(=O)OC [Example 106] | 0.7
12 | COC(=O)NCCCc1cc([C@@H](C)N(C(=O)[C@H]2CNCCO2)C2CC2)ccc1OC(C)C [Example 107] | 0.7
13 | COC(=O)NCCc1cn(C)c2ccc([C@@H](C)N(C(=O)[C@H]3CNCCO3)C3CC3)cc12 [Example 108] | 1.1
14 | CCc1cc([C@@H](C)N(C(=O)[C@H]2CNCCO2)C2CC2)cc(OCCNC(=O)OC)n1 [Example 109] | 3.4
15 | COCCCCc1cc([C@@H](C)N(C(=O)[C@H]2CNCCO2)C2CC2)cc(C(C)C)n1 [Example 110] | 0.9
16 | COC(=O)NCCCn1nc([C@@H](C)N(C(=O)[C@H]2CNCCO2)C2CC2)c2ccc(CN(C)C)cc21 [Example 111] | 3.5
17 | CCc1cc([C@@H](C)N(C(=O)[C@H]2CNCCO2)C2CC2)cc(CCCCOC)n1 [Example 112] | 2

same assay, conditions: 50% inhibitory concentration (IC50) against human renin, 37° C. for 1 hour

Row | SMILES | IC50 [nM]
18 | COCCCc1cn(C)c2c(C)nc([C@@H](C)N(C(=O)[C@H]3CNCCO3)C3CC3)cc12 [Example 113] | 1.4
19 | COC(=O)NCCCn1cc([C@@H](C)N(C(=O)[C@H]2CNCCO2)C2CC2)c2ncc(Br)cc21 [Example 114] | 1.1
20 | COCCCCn1cc([C@@H](C)N(C(=O)[C@H]2CNCCO2)C2CC2)c2nccc(COC)c21 [Example 115] | 1.8
21 | COC(=O)NCCCc1cc([C@@H](C)N(C(=O)[C@H]2CNCCO2)C2CC2)nc2ccccc12 [Example 119] | 0.5
22 | CCc1cc(CCCNC(=O)OC)cc([C@@H](C)N(C(=O)[C@H]2CNCCO2)C2CC2)n1 [Example 120] | 1.7
23 | COC(=O)NCCCc1cc([C@@H](C)N(C(=O)[C@H]2CNCCO2)C2CC2)ncc1OC [Example 121] | 5.4
24 | COC(=O)NCCCc1cc([C@@H](C)N(C(=O)[C@H]2CNCCO2)C2CC2)nc2c1CCCC2 [Example 122] | 0.2
25 | COCCCCc1cc([C@@H](C)N(C(=O)[C@H]2CNCCO2)C2CC2)nc2c1CCCC2 [Example 123] | 0.8
26 | COCCCc1cn(C)c2cnc([C@@H](C)N(C(=O)[C@H]3CNCCO3)C3CC3)cc12 [Example 125] | 1.3
27 | CCc1ncc([C@@H](C)N(C(=O)[C@H]2CNCCO2)C2CC2)cc1CCCCOC [Example 126] | 6
28 | COC(=O)NCCCc1cc([C@@H](C)N(C(=O)[C@H]2CNCCO2)C2CC2)cnc1-c1ccccc1 [Example 128] | 1.4
29 | COC(=O)NCCCc1cc([C@@H](C)N(C(=O)[C@H]2CNCCO2)C2CC2)cc(C2CC2)n1 [Example 129] | 1.3
30 | CCc1cn(CCCOC)c2cc([C@@H](C)N(C(=O)[C@H]3CNCCO3)C3CC3)nc(Cl)c12 [Example 130] | 1.5
31 | COC(=O)NCCCc1cc(C2CC2)nc([C@@H](C)N(C(=O)[C@H]2CNCCO2)C2CC2)c1 [Example 133] | 1.6
32 | COCCCCn1cc([C@@H](C)N(C(=O)[C@H]2CNCCO2)C2CC2)c2ccnc(C)c21 [Example 134] | 6.3
33 | COC(=O)NCCCn1cc([C@@H](C)N(C(=O)[C@H]2CNCCO2)C2CC2)c2cnc(C)cc21 [Example 135] | 6.3
34 | COC(=O)NCCCn1cc([C@@H](C)N(C(=O)[C@H]2CNCCO2)C2CC2)nc1-c1ccccc1 [Example 136] | 0.3
35 | COC(=O)NCCCc1cc([C@@H](C)N(C(=O)[C@H]2CNCCO2)C2CC2)cnc1C1CCCC1 [Example 137] | 0.4
36 | COC(=O)NCCCn1cc(C(C)N(C(=O)[C@H]2CNCCO2)C2CC2)c2ccnc(C)c21 (stereo partly drawn) [Example 138] | 6.1
37 | COC(=O)NCCCn1cc(C(C)N(C(=O)[C@H]2CNCCO2)C2CC2)c2ncc(F)cc21 (stereo partly drawn) [Example 139] | 2.1

Second part, the compound after the results:

Row | IC50 [nM] | SMILES
38 | 0.8 | CCc1nc([C@@H](C)N(C(=O)[C@H]2CNCCO2)C2CC2)cc2c1c(C)cn2CCCOC [Example 140]
39 | 0.5 | COC(=O)NCCCc1cc([C@@H](C)N(C(=O)[C@H]2CNCCO2)C2CC2)nc2ccc(OC)cc12 [Example 141]
40 | 0.5 | COC(=O)NCCCc1cc([C@@H](C)N(C(=O)[C@H]2CNCCO2)C2CC2)nc2ccc(F)cc12 [Example 142]
41 | 1.5 | COC(=O)NCCCc1cc([C@@H](C)N(C(=O)[C@H]2CNCCO2)C2CC2)nc2cc(F)c(F)cc12 [Example 143]
42 | 0.7 | COC(=O)NCCCc1cc([C@@H](C)N(C(=O)[C@H]2CNCCO2)C2CC2)nc2ccc(C)cc12 [Example 144]
43 | 0.5 | COC(=O)NCCCc1cc([C@@H](C)N(C(=O)[C@H]2CNCCO2)C2CC2)cc2cccnc12 [Example 145]
44 | 1 | COC(=O)NCCCc1cc([C@@H](C)N(C(=O)[C@H]2CNCCO2)C2CC2)nc2ccc(C#N)cc12 [Example 146]
45 | 2.5 | CCc1nc([C@@H](C)N(C(=O)[C@H]2CNCCO2)C2CC2)cc2c1ccn2Cc1ccccc1 [Example 147]
46 | 5.1 | Cc1nc([C@@H](C)N(C(=O)[C@H]2CNCCO2)C2CC2)cc2c1ccn2Cc1ccccc1 [Example 148]
47 | 0.8 | COC(=O)NCCCc1cc([C@@H](C)N(C(=O)[C@H]2CNCCO2)C2CC2)cc2ncccc12 [Example 149]
48 | 2.6 | CCc1cn(CCCOC)c2cc([C@@H](C)N(C(=O)[C@H]3CNCCO3)C3CC3)nc(C#N)c12 [Example 150]
49 | 1 | COC(=O)NCCN1CC(C)(C)c2ccc([C@@H](C)N(C(=O)[C@H]3CNCCO3)C3CC3)cc21 [Example 151]
50 | 1.1 | CCc1cn(CCCOC)c2cc([C@@H](C)N(C(=O)[C@H]3CNCCO3)C3CC3)nc(CC)c12 [Example 152]
51 | 2.2 | COCCCn1cc(COC)c2c(C(C)C)nc([C@@H](C)N(C(=O)[C@H]3CNCCO3)C3CC3)cc21 [Example 153]
52 | 2.4 | COC(=O)NCc1cc([C@@H](C)N(C(=O)[C@H]2CNCCO2)C2CC2)nc2ccccc12 [Example 154]
53 | 0.8 | CCc1nc([C@@H](C)N(C(=O)[C@H]2CNCCO2)C2CC2)cc2c1c(F)cn2CCCOC [Example 155]
54 | 2.1 | COc1ccc2nc([C@@H](C)N(C(=O)[C@H]3CNCCO3)C3CC3)cc(CCCNC(C)=O)c2c1 [Example 156]
